# Data from patent US20040097577A1 (priority 2001, published 2004).
# Experiments:
# [1] = test system: children; settings: cited from earlier work
# [2] = test system: children, most of whom were neurologically multiply disabled; settings: 2 to 10 mg of oral melatonin at bedtime; cited from earlier work
# [3] = test system: patients in the age ranging from 6 to 14 years; experiment: pilot study, effect of melatonin on sleep latency (sleep logs, CGI), melatonin versus placebo; format: in vivo, human
# Protocol: In a pilot study, nine patients in the age ranging from 6 to 14 years were run through a protocol to determine feasibility. A sample of four sleep logs, illustrating response at each of the protocol was determined. […] Patients tolerated the protocol, and parents were able to reliably complete the sleep logs. Some parents had to be trained to do so over several visits. Parents whose children fell asleep extremely late, could not tolerate staying up to find out when they actually fell asleep, and had to be excluded.
structure (smiles),measurement,setting,value
"COc1ccc2[nH]cc(CCNC(C)=O)c2c1 [melatonin, N-acetyl-5-methoxytryptamine]",adverse effects on long-term use,[1]; children who received melatonin for several years,without adverse effects
same,average onset of sleep after melatonin administration,"[1]; children, 2.5 to 7.5 mg PO once daily before expected bedtime",≤ 1 h
same,adverse side-effects,[2],no adverse side-effects
same,"health, behavioural and social benefits",[2],significant
same,CGI data,[3]; melatonin versus placebo,not significant
same,difference in response between the melatonin and placebo,"[3]; nine patients, sleep logs, with sleep hygiene",significant difference in response (p=0.03)
